Results from US20090269734A1, “METHOD FOR DETERMINATION OF RECOGNITION SPECIFICITY OF VIRUS FOR RECEPTOR SUGAR CHAIN” (priority 2005, published 2009).

Legend:
[1] = system: avian A virus: A/duck/Hong Kong/24/76 (H3N2); format: binding, avian influenza A virus
[2] = system: human A virus: A/Memphis/1/71/(H3N2); format: binding, human influenza A virus
human B virus: B/Lee/40 = format: binding, human influenza B virus

Substance	recognition of the polymer with sialo-oligosaccharide by the avian influenza A virus (absorbency at 492 nm) [1]	recognition of the polymer with sialo-oligosaccharide by the human influenza A virus (absorbency at 492 nm) [2]	recognition of the polymer with sialo-oligosaccharide by the human influenza B virus (absorbency at 492 nm) (human B virus: B/Lee/40)
Poly (Neu5Ac α2-3Gal β1-4GlcNAc β-pAP/α-PGA)	strongly recognizes	weak	weak
Poly (Neu5Ac α2-6Gal β1-4GlcNAc β-pAP/α-PGA)	weak	strongly recognizes	strongly recognizes
